From patent US20090176776A1, “SMALL MOLECULE INHIBITORS OF HIV-1 CAPSID ASSEMBLY” (UNIVERSITY OF ALABAMA AT BIRMINGHAM, priority 2005, published 2009)

Assays:
[1] = biological target: T1, recombinant HIV-1 capsid protein (CA) (Human immunodeficiency virus type 1 group M subtype B, UniProt P12493); experiment: Turbidity based HIV-1 capsid assembly assay; format: biochemical; details: initial assembly rate by turbidity; twofold dilutions over a 128 fold range; 30 μM CA, 2.25 M NaCl
T1 construct: recombinant HIV-1 capsid protein (CA); made in house
Description: The kinetics can be followed by monitoring the increase of turbidity using a spectrophotometer. The IC50 of the chemical compound tested is determined by titration. As the C-domain inhibits capsid assembly by forming CA-C-domain heterodimers, the effect of added C-terminal domain on the rate of assembly was evaluated by plotting the rate of assembly versus C-terminal domain concentration.
Soluble HIV-1 capsid protein can be triggered to assemble into tubes similar in diameter and morphology to intact cores by dilution into high iconic strength buffer. The kinetics of assembly can be followed by monitoring the increase in turbidity using a spectrophotometer (Lanham et al., J. Virol., 76:6900, 2002). This assembly assay was adapted to a 96-well, microplate format to allow for medium-throughput screening of compounds by measuring turbidity in a Nepeloskan Ascent plate reader (Thermo Electron Corp., UK). A DIVERSet™ library of 10,000 low molecular weight, “drug-like” compounds was purchased from ChemBridge Corp. (San Diego, Calif.). This library was selected for its potential bioavailability and application based on a pharmacophore diversity analysis. The average molecular weight of the compounds is 347 g/mol, the range being 200-596 g/mol. The compounds came plated in 96-well plates and solubilized in DMSO at 5 mgs/mL.
Turbidity based assay. A 1.5 μL aliquot of compound was diluted 90-fold into 50 mM Na2HPO4, […] buffer, pH 8 in an optically clear 96-well plate. The plate containing compounds and salt was read to check for compound solubility and to serve as a background reading for the assay. To initiate the assembly reaction, 15 μL of […] stock (in 50 mM Na2HPO4 pH 8) of recombinant HIV-1 capsid protein (CA), purified as described (Lanman et al., J. Virol., 76:6900, 2002), was added to each well of the 96-well plate using a multi-channel pipettor. […] Furthermore, the halftime of the assembly reaction is ˜5 minutes so reading the plate in thirds prevented loss of initial rate data. Therefore, CA was added to the first 4 lanes, the reactions followed for ten minutes, reading was paused, CA was then added to the next four lanes and the process repeated. Instrument settings are as follows: PMT gain of 500 V, lamp at 10V, and integration time of 60 ms. The data were exported to a custom designed Excel spreadsheet that allowed simultaneous plotting of kinetic curves.
Recombinant CA protein was purified as previously described and stored at 300 μM at −80° C. A turbidity based assembly assay, described above, was adapted to a 96-well, microplate format to allow for medium-throughput screening of compounds in a Nepheloskan Ascent plate reader (Thermo Electron Corp., UK). A 1.5 μL aliquot of compound or DMSO was diluted 90-fold into 50 mM Na2HPO4, 2.25 M NaCl buffer, pH 8 in an optically clear 96-well plate. To initiate the assembly reaction, 15 μL of the 300 μM stock (in 50 mM Na2HPO4 pH 8) of recombinant HIV-1 capsid protein (CA), was added to each well of the 96-well plate using a multi-channel pipettor.

[2] = MTS score (Table 1; method not described); format: cell-based; details: for MTS AVG 4 (No Effect): average of the MTS scores at 10, 30 and 100 μM; for MTS 10 μM: score at nominal 10 μM; for MTS 10 μM / MTS 30 μM / MTS 100 μM: 4 = No Effect; for MTS 30 μM: score at nominal 30 μM; for MTS 100 μM: score at nominal 100 μM
HIV-1NL43 [3] = experiment: Anti-HIV assay (single round), infectivity of virus produced, titered on TZM-b1 cells; format: cell-based; details: virus from NL43-transfected 293T cells, 72 hours; luciferase after two days; read-out: Infectivity 50%
Description: (§1) Anti-HIV Assays (Single Round). The inhibitory effect of the compounds on virus production and infectivity were determined by measuring the level of p24 produced in the presence of various concentrations of compounds from HEK-293 cells transiently transfected with pNL43 and by titering the virus on TZM-b1 cells. Briefly, 2.5×10^5 HEK-293 cells/ml were transfected with pNL43 using FuGene 6. Four hours post transfection the cells were plated in 96-well plates containing 100 μl of various concentrations of compounds (0-75 μM or 0-300 μM for mock transfected cells) in triplicate. At 72-hours post transfection virus supernatant was collected and stored at −80° C. until analysis. The level of p24 produced at each compound concentration was determined relative to the level produced in the presence of the DMSO only controls using HIV-1 p24 enzyme-linked immunosorbent assay (ELISA) (Beckman-Coulter). To determine the infectivity of the virus produced TZM-b1 cells were plated at 1×10^5 cells/ml in 100 μL in 96-well plates overnight. The next day, the media was replaced with 75 μL DMEM supplemented with 1% FBS, 1× PSG and 40 μg/ml DEAE Dextran and 25 μL of viral supernatant from the HEK-293 cells was added to each well. Three hours later 100 μL of DMEM with 7% FBS was added to each well. Two days after infection the cells were lysed and the level of luciferase expression was determined using the Bright-Glo assay.
(§2) FIGS. 12-18 show the anti-HIV assays for the examples of chemical compounds used according to the invention. After in-vitro assay, the chemical compounds in FIGS. 12-18 were selected for screening for cell viability and toxicity. Jurkat cells assay was used as screening assay. In Jurkat cells assay, JLTRG-R5 cells were used as Indicator cells and MOLT4 cells as Producer cells of NL43 and BAL virus. 96 chemical compounds were plated at seven different concentration from 75 μM to 0 μM at three-fold serial dilutions in 384 well plate. After five days, GFP expression was read. Cell viability was monitored with Alamar Blue assay. Luc M7 assay was designed to measure inhibitory activity of the chemical compounds to viral replication. After infection of cells with YU2 virus, plate cells in 96-well plate in the presence of six concentration of compounds in DMSO. At day 6, the number of cells in wells were read with Cell Titer Glo kit or by counting the number of cells infected with Bright Glo kit. 293T cells assay was designed to determine the toxicity. 293T cells were transfected with NL43. After four hours, transfected cells were plated in 96-well plate in DMSO and 2 μM Indinavir. 72 hours later, viral supernatant was collected and plated on JC53BL. Luciferase expression was measure after two days and p24 analysis was conducted with 1:1000 and 1:2000 dilutions.

HIV-1NL43 [4] = experiment: Anti-HIV assay (single round), p24 production by pNL43-transfected cells (ELISA); format: cell-based; details: p24 in supernatant of NL43-transfected 293T cells, 72 hours; read-out: p24 50%
Description: as §1, §2

293T cells = experiment: Toxicity in 293T cells; format: cell-based, human; design: unit not given beside the values
Description: as §1, §2

HIV-1YU2 = experiment: Anti-HIV assay (multiple round), luciferase expression in Luc-M7 cells; format: cell-based; details: Luc-M7 cells infected with HIV-1YU2, 6 days, Bright-Glo
Description: (§3) Anti-HIV Assays (Multiple Round). The inhibitory effects of the tested compounds on HIV-1YU2 replication were determined by the level of luciferase expression after 6 days of infection using Bright-Glo assay (Promega). An amount of 1.5×10^4 Luc-M7 (a gift from Ned Landau) cells per ml were infected with HIV-1YU2 at a multiplicity of infection (MOI) of 3. The HIV-1 infected ([…] compound) or mock-infected (0-300 μM compound) Luc-M7 cells were placed in 96-well culture plates (100 μl/well) with 100 μl of various concentrations of the compounds with 20 μg/ml DEAE Dextran in triplicate and incubated at 37° C. under 5% CO2 at 100% humidity. After 6 days, cell viability was quantified by Cell-Titer Glo assay (Promega). […] On day 5 cell viability was determined in the mock-infected cells. FIGS. 12-18 show the anti-HIV assays for the examples of chemical compounds used according to the invention. After in-vitro assay, the chemical compounds in FIGS. 12-18 were selected for screening for cell viability and toxicity. Jurkat cells assay was used as screening assay. […] After five days, GFP expression was read. Cell viability was monitored with Alamar Blue assay. Luc M7 assay was designed to measure inhibitory activity of the chemical compounds to viral replication. After infection of cells with YU2 virus, plate cells in 96-well plate in the presence of six concentration of compounds in DMSO. At day 6, the number of cells in wells were read with Cell Titer Glo kit or by counting the number of cells infected with Bright Glo kit. 293T cells assay was designed to determine the toxicity. 293T cells were transfected with NL43. After four hours, transfected cells were plated in 96-well plate in DMSO and 2 μM Indinavir. 72 hours later, viral supernatant was collected and plated on J[…].

Luc-M7 cells = experiment: Cell viability of Luc-M7 cells (Cell-Titer Glo); format: cell-based; design: unit: μM; details: mock-infected Luc-M7 cells, 6 days
Description: as §3

Row | SMILES | IC50 [1] [µM] | MTS AVG 4 (No Effect) [2] | MTS 10 μM [2] | MTS 30 μM [2] | MTS 100 μM [2] | IC50 (HIV-1NL43 [3]) [µM] | IC50 (HIV-1NL43 [4]) [µM] | TC50% (293T cells) | IC50 (HIV-1YU2) [µM] | TC50 (Luc-M7 cells)
1 | O=C(O)C(S)Cc1ccc(Cl)cc1 (centres unmarked) [Compound 47] | 37 | 2.000 | 4 | 1 | 1 | 34.2 | 24.6 | 202 |  | 
2 | Cc1nc2ccccc2n1Cc1ccc(Br)cc1 [Compound 18] | 21 | 1.000 | 1 | 1 | 1 | 43.2 | 1.8 | 9.1 |  | 
3 | CCc1ccc(OCCCCCn2ccnc2)cc1 [Compound 58] | 25 | 1.333 | 2 | 1 | 1 | 10 | 1.69 | 5 | 0.06 | 8.7
4 | Cc1ccc(S(=O)(=O)NN=Cc2cc(Br)cc(Br)c2O)cc1 [Compound 73] | 15 | 3.000 | 4 | 3 | 2 | 32 | 70 | 178 |  | 
5 | COc1ccc(NS(=O)(=O)c2ccc(Br)cc2)cc1OC [Compound 14] | 10 | 1.667 | 2 | 1 | 2 | > 75 | 62.8 | 102 |  | 
6 | O=[N+]([O-])c1c(Cl)cc(O)c2c1C1C=CCC1C(c1ccc(Br)cc1)N2 (centres unmarked) [Compound 25] | 10 | 1.000 | 1 | 1 | 1 | 17.7 | 10.4 | 174 |  | 
7 | CCN(CC)c1ccc(C=Nc2ccc(Sc3ccc([N+](=O)[O-])cc3)cc2)cc1 [Compound 70] | 33 | 3.000 |  | 4 | 2 | 32.9 | 67.5 | 135 | 1.47 | 92.5
